{
  "source": "patent US5686426A",
  "about": "“Dicarboxymethylated glycolipid derivatives as cell adhesion inhibitors” (Bristol-Myers Squibb Company, priority 1994, dated 1997)",
  "key": {"[1]": {"tested_on": "HL-60 cells / activated platelets (P-selectin)", "experiment": "HL-60 Platelet Cell Adhesion Assay", "type": "cell-based", "details": "HL-60 cell adhesion to thrombin-activated human platelets", "method": "HL-60 cells, obtained from American Type Culture Collection, were cultured in RPMI 1640 medium (GIBCO) supplemented with 20% fetal calf serum (Sigma) and 50 μg/ml gentamicin (GIBCO). Cells in log phase growth were harvested, washed and resuspended in Tyrodes buffer containing 5 mM HEPES and 0.2% bovine serum albumin and were fixed with 1% buffered formalin.\nBlood from normal human donors was anticoagulated with citrate, layered over 1-Step Platelets (Accurate Chemical Co.), and centrifuged at 350 g for 20 minutes at room temperature. The platelet band was collected, diluted in 2 volumes of Tyrode's Buffer with 5 mM HEPES, 10 mM EDTA, and 0.2% BSA (pH 7.4) (THEB) and centrifuged at 600 g for 10 minutes. The platelet pellet was resuspended in THEB and incubated at room temperature for 1 hour. Calcein-acetoxy methylester (Calcein-Am, Molecular Probes) was added to the platelets at a final concentration of 10 μM and incubated for 10 minutes at 37° C. to label the platelets. Without washing, the platelets were counted on a Coulter counter model ZM, and the concentration was adjusted to 1×10^7 /ml. The platelets were activated with 2 U/ml of human thrombin for 10 minutes in Tyrode's containing 2 mM CaCl2, 5 mM HEPES, and 0.2% BSA (pH 7.4) (THB) at 37° and immediately fixed with 1% buffered formalin for 1 to 2 hours at room temperature. A small aliquot of labeled platelets was removed before activation and designated as non-activated.\nBoth platelets and HL-60 were washed in a ≥5 fold excess volume of Hanks Balanced Salt Solution (HBSS), resuspended in THB and counted. Cell concentrations were adjusted to 2×10^7 /ml for platelets and 4×10^6 /ml for HL-60, this ratio determined to be optimum for platelet: HL-60 cell adhesion. Compounds were incubated with 50 μl of platelets for 30 minutes at room temperature before addition of 50 μl of HL-60. This ratio of 5:1 platelets to HL-60 was incubated for 30 minutes at room temperature before addition of 0.2 ml of THB to increase the volume so the samples could be analyzed on a FACScan cytometer (Becton Dickinson). Non-activated platelets, and activated platelets with 10 mM EDTA were included as controls. Data were collected within a region set for the forward scatter channel corresponding to HL-60 size events.\nThe percent HL-60 cells which contained bound platelets was determined for each test condition. The inhibition of binding was determined by comparison to standards which were treated with vehicle alone (representing 0% inhibition) and standards whose specific binding had been blocked by the use of EDTA (representing 100% inhibition), by the following formula: [formula] where x=HL-60 cells containing bound platelets in the presence of the compound;\nb=HL-60 cells containing bound platelets in the presence of EDTA;\na=HL-60 cells containing bound platelets in presence of compound vehicle;\nz=% inhibition of platelet: HL-60 cell adhesion"}, "[2]": {"tested_on": "reverse passive Arthus reaction in rats", "experiment": "Reverse Passive Arthus Reaction in Rats (RPA)", "type": "in vivo, Male Sprague Dawley rats", "details": "rat, single IV dose 3 mg, 4 hours", "excerpt": "The reverse passive Arthus reaction in rats is a modification of the method by Mulligan et al., as described in J. Clin. Invest., (1991) 88: 1396-1406. This is an experimental model in which the interaction of antigen-antibody complexes and complement leads to a severe vasculitis that is associated with edema, induration, erythema and hemorrhage. The interaction between the antigen-antibody complexes and complement leads to a localized influx of neutrophils. These neutrophils release a variety of mediators that are associated with tissue damage and vascular permeability. The localized inflammatory reaction is measured using different techniques i.e., vascular permeability and neutrophil influx which is evaluated both biochemically and microscopically.\nMale Sprague Dawley specific pathogen-free rats with jugular vein cannulae (280-320 g, Hill Top Labs, Pa.) are used in these studies. Animals are acclimated for at least 1 day and individually housed in stainless steel cages. The dorsal region of the rats is closely clipped 2 days prior to the experiments and divided into 4 sites on each side of the midline. Prior to all injections the rats are sedated with 0.4 ml per 300 gm rat of ketamine/rompun [1000 mg (10 ml) of ketamine HCL is mixed with 40 mg (2.0 ml) Rompun] administered IP and or inhalation anesthesia with metafane (methoxyflurane).\nBovin Serum Albumin (BSA) and rabbit polyclonal IgG rich in anti-BSA are purchased from Sigma Chemical Co. (St. Louis, Mo.). Radiolabelled ^125 I-BSA (spAct 1-5 μCi/μg) is purchased from Dupont NEN (Boston, Mass.).\nEach rat is administered intradermal (ID) injection of (0.4 mg, 0.6 mg and 0.8 mg) anti-BSA in a volume of 100 μl per injection in normal saline. The ID injections are randomized near the mid dorsal region on both sides of the back bone. Immediately after the ID injections of the anti-BSA, the rats are administered intravenous (IV) injections of BSA (10 mg in 1.0 ml) in normal saline containing ^125 I labeled BSA (1 μCi/ml BSA or 5.0 μCi/kg body wt) for quantification of dermal vascular injury. Anti-inflammatory agents such as inhibitors of adhesion molecules of the present invention are administered IV at a single dose of 3 mg immediately after BSA. Four (4) hours after the IV injection of BSA, the rats are anesthetized with metafane and 2 to 3 ml of blood is withdrawn via the cannula into an anticoagulant containing (EDTA or Heparin) tube and plasma separated and saved for neutrophil and albumin quantitation. The rats are killed and the skin surrounding the injection site (15 mm diameter) is punched out and weighed. The skin samples and a fixed volume of plasma (0.1 to 1.0 ml) is analyzed in a gamma-counter for ^125 I content. Skin samples from the contralateral side are processed and analyzed for myeloperoxidase activity (MPO) as a measure of neutrophil accumulation. As needed, samples are also processed for histological evaluation of the reacted sites.\nVascular Permeability (VP)\nThe calculation of the plasma protein exudation into skin is made by determining the radioactivity in the tissue and relating this to the level of radioactive albumin in the blood at the time of sacrifice. […] [formula]\nPercent inhibition of the test compound at 3 mg was determined as follows: [formula] Myeloperoxidase (MPO)\nMPO is located in the azurophil granules of polymorphonuclear leukocytes (PMN). Because of its abundance in these cells (5% dry weight), this enzyme is used as a marker for tissue neutrophil content. For tissue MPO content, the method of Bradley, et al., was used as described in J. Invest. Dermatol. (1982) 78: 206-209. Biopsies from each treatment group were placed in plastic tubes (15×100 mm) containing 10 ml of 0.5% hexadecyltrimethylammonium bromide (HTAB)in 0.05M potassium phosphate buffer pH 6.0. The tissue was then homogenized with a Brinkmann Polytron homogenizer (10s). […]"}, "[3]": {"target": "T1, P-selectin (Homo sapiens, UniProt P16109)", "T1 sequence (P16109 42-830)": "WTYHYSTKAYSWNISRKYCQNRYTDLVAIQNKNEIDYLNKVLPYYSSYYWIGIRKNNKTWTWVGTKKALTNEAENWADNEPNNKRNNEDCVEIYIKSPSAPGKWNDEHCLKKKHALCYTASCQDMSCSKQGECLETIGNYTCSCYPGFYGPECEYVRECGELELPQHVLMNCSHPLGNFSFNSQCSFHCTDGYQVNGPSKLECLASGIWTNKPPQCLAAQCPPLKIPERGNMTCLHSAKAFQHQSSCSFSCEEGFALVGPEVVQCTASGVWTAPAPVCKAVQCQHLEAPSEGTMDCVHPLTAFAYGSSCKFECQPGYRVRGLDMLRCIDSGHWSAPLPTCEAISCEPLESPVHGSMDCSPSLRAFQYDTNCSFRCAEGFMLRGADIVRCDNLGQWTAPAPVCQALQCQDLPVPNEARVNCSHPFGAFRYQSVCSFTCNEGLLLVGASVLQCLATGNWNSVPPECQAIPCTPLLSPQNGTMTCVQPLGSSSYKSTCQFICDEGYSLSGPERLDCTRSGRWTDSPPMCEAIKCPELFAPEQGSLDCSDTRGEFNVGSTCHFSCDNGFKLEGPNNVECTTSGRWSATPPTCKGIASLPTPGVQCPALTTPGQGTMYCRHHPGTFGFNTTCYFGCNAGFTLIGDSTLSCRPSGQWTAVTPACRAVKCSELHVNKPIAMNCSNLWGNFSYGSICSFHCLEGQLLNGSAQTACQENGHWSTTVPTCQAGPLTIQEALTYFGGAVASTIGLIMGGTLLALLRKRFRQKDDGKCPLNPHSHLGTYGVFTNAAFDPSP", "details": "literature; cited from earlier work"}, "[4]": {"target": "T1, P-selectin", "details": "anionic polymers; literature; cited from earlier work"}},
  "note": "pIC50: −log10 of the molar value.",
  "data": [
    {"compound": "CCCCCCCCCCCCC/C=C/[C@@H](OC(=O)c1ccccc1)[C@H](CO[C@H]1O[C@H](COC(=O)c2ccccc2)[C@H](OCC(=O)O)[C@H](OCC(=O)O)[C@H]1OC(=O)c1ccccc1)NC(=O)CCCCCCCCCCCCCCC", "note": "[Example 10, (2S,3R,4E)-2-Hexadecanoylamino-3-benzoyloxy-1-[3,4-di-O-carboxy-methyl-2,6-di-O-benzoyl-α-D-galactopyranosyloxy]-4-octadecene]", "values": [
      {"measurement": "pIC50", "setting": "[1]", "value": "< 4.00"},
      {"measurement": "RPA VP % Inhib. (vascular permeability)", "setting": "[2]; 125I-BSA plasma extravasation into skin", "value": 54, "unit": "%"},
      {"measurement": "RPA MPO % Inhib. (myeloperoxidase, neutrophil accumulation)", "setting": "[2]; skin MPO activity", "value": 65, "unit": "%"}
    ]},
    {"compound": "CC(=O)N[C@H]1C(O)O[C@H](CO)[C@@H](O[C@@H]2O[C@H](CO)[C@H](O)[C@H](O)[C@H]2O)[C@@H]1O[C@@H]1O[C@@H](C)[C@@H](O)[C@@H](O)[C@@H]1O", "note": "(stereo partly shown) [Le^x]", "values": [
      {"measurement": "binding to P-selectin (in words)", "setting": "[3]", "value": "shown to bind"}
    ]},
    {"compound": "dextran sulfate", "values": [
      {"measurement": "inhibition of P-selectin mediated adhesion (in words)", "setting": "[4]", "value": "shown to inhibit P-selectin mediated adhesion"}
    ]},
    {"compound": "fucoidan", "values": [
      {"measurement": "inhibition of P-selectin mediated adhesion (in words)", "setting": "[4]", "value": "shown to inhibit P-selectin mediated adhesion"}
    ]},
    {"compound": "heparin", "values": [
      {"measurement": "inhibition of P-selectin mediated adhesion (in words)", "setting": "[4]", "value": "shown to inhibit P-selectin mediated adhesion"}
    ]}
  ]
}
